Read-outs that look alike come from different tables or passages of the source. Marks after values point to notes of the source that are not given here.
Assays:
[1] = molecular target: wild type human RORγt ligand binding domain (RORγt LBD) (Homo sapiens (Human), UniProt P51449); settings: read-out: ThermoFluor® Assay, Kd
Experimental: This approach is applicable to a wide variety of systems, and rigorous in theoretical interpretation through quantitation of equilibrium binding constants (KD).
The shift in the melting point described as a ΔTm is proportional to the concentration and affinity of the ligand.
RORγt ThermoFluor® Assay Construct
ThermoFluor® experiments were carried out using instruments owned by Janssen Research and Discovery, L.L.C. through its acquisition of 3-Dimensional Pharmaceuticals, Inc. 1,8-ANS (Invitrogen) was used as a fluorescent dye. Protein and compound solutions are dispensed into black 384-well polypropylene PCR microplates (Abgene) and overlayed with silicone oil (1 μL, Fluka, type DC 200) to prevent evaporation.
Fluorescence was measured by continuous illumination with UV light (Hamamatsu LC6) supplied via fiber optic and filtered through a band-pass filter (380-400 nm; >6 OD cutoff). Fluorescence emission of the entire 384-well plate was detected by measuring light intensity using a CCD camera (Sensys, Roper Scientific) filtered to detect 500±25 nm, resulting in simultaneous and independent readings of all 384 wells. Images were collected at each temperature, and the sum of the pixel intensity in a given area of the assay plate was recorded versus temperature. Reference wells contained RORγt without compounds, and the assay conditions were as follows: • 0.065 mg/mL RORγt • 60 μM 1,8-ANS • 100 mM Hepes, pH 7.0 • 10 mM NaCl • 2.5 mM GSH • 0.002% Tween-20

full-length human RORγt [2] = molecular target: T1, full-length human RORγt (Homo sapiens (Human), UniProt P51449); format: cell-based; settings: for IC50: HEK293T cells, Conditions A, read-out: RORγt (FL) Reporter Assay A, IC50
Experimental: (§1) RORγt (full-length human) Reporter Assay:
Luminescence was measured using a BMG LUMIstar OPTIMA plate reader, after addition of 75 μL/well firefly luciferase buffer, followed by 75 μL/well Renilla luciferase buffer.

[3] = test system: IL-17 production by CD4 T cells; experiment: Human Th17 Assay; format: cell-based; settings: 72 h, read-out: Human Th17 Assay, IC50
Description: Human Th17 Assay The human Th17 assay tests the effect of RORγt modulatory compounds on IL-17 production by CD4 T cells under conditions which favor Th17 differentiation. Total CD4+ T cells were isolated from the peripheral blood mononuclear cells (PBMC) of healthy donors using a CD4+ T cell isolation kit II, following the manufacturer's instructions (Miltenyi Biotec). […] The final concentrations of antibodies and cytokines (R&D Systems) in differentiation medium were: 3×10^6/mL anti-CD3/CD28 beads (prepared using human T cell activation/expansion kit, Miltenyi Biotec), 10 μg/mL anti-IL4, 10 μg/mL anti-IFNγ, 10 ng/mL IL113, 10 ng/mL IL23, 50 ng/mL IL6, 3 ng/mL TGFβ and 20 U/mL IL2. Cells were cultured at 37° C. and 5% CO2 for 3 days. Supernatants were collected and the accumulated IL-17 in culture was measured by using MULTI-SPOT® Cytokine Plate following manufacture's instruction (Meso Scale Discovery). The plate was read using Sector Imager 6000, and IL-17 concentration was extrapolated from the standard curve. The IC50s were determined by GraphPad.

full-length human RORγt [4] = molecular target: T1, full-length human RORγt; settings: for IC50: read-out: RORγt (FL) Reporter Assay B or C, IC50, HEK293T cells, Conditions B or C
Description: as §1
All three provide similar data and can be used interchangeably.

[5] = *** 0.67 μM compound concentration

T1 sequence (P51449 other isoform, or with tags, fused parts or gaps): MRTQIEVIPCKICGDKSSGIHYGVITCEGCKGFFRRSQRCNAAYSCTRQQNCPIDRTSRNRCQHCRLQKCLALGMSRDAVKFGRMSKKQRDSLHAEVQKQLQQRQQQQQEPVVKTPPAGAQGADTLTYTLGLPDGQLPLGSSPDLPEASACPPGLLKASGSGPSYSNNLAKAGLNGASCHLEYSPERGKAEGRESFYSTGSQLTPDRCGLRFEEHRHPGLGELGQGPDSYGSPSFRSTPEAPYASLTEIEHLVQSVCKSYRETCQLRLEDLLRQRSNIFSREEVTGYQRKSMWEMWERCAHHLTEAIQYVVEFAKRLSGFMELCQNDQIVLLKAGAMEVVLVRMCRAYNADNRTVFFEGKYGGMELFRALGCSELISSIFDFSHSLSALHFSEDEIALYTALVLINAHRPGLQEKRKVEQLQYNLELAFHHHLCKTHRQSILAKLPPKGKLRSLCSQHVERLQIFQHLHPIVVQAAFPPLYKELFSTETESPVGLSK
Sequence of wild type human RORγt ligand binding domain (RORγt LBD) (P51449 other isoform, or with tags, fused parts or gaps): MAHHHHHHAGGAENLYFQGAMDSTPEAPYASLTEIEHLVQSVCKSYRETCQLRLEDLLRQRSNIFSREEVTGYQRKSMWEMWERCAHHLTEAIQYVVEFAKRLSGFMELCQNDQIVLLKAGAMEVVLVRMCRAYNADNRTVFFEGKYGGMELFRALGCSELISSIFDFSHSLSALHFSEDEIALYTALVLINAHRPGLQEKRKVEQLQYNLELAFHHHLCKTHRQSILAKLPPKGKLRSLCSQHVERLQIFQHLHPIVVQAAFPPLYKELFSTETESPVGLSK

## C[C@H]1C[C@@H](F)CCN1C(=O)c1nc(C(=O)NCC(C)(C)O)sc1-c1ccc(C(O)(C(F)(F)F)C(F)(F)F)c(Cl)c1Cl [Example 2/1, 5-(2,3-Dichloro-4-(1,1,1,3,3,3-hexafluoro-2-hydroxypropan-2-yl)phenyl)-4-((2S,4S)-4-fluoro-2-methylpiperidine-1-carbonyl)-N-(2-hydroxy-2-methylpropyl)thiazole-2-carboxamide]
[1]
  Kd: 0.16 nM
full-length human RORγt [2]; ** 2 μM compound concentration
  RORγt (FL) Reporter Assay A, % inhibition: 103** %
full-length human RORγt [2]
  IC50: 14 nM

## C[C@H]1CC(F)(F)CN1C(=O)c1nc(C(=O)NCC(C)(C)O)sc1-c1ccc(C(O)(C(F)(F)F)C(F)(F)F)c(Cl)c1Cl [Example 2/2, (S)-5-(2,3-Dichloro-4-(1,1,1,3,3,3-hexafluoro-2-hydroxypropan-2-yl)phenyl)-4-(4,4-difluoro-2-methylpyrrolidine-1-carbonyl)-N-(2-hydroxy-2-methylpropyl)thiazole-2-carboxamide]
[1]
  Kd: 0.22 nM
full-length human RORγt [2]; [5]
  RORγt (FL) Reporter Assay A, % inhibition: 101*** %
full-length human RORγt [2]
  IC50: 10 nM

## C[C@H]1CCCN1C(=O)c1nc(C(=O)NCC(C)(C)O)sc1-c1ccc(C(O)(C(F)(F)F)C(F)(F)F)c(Cl)c1Cl [Example 2/8, (S)-5-(2,3-Dichloro-4-(1,1,1,3,3,3-hexafluoro-2-hydroxypropan-2-yl)phenyl)-N-(2-hydroxy-2-methylpropyl)-4-(2-methylpyrrolidine-1-carbonyl)thiazole-2-carboxamide]
full-length human RORγt [2]; ** 2 μM compound concentration
  RORγt (FL) Reporter Assay A, % inhibition: 103** %
[3]
  IC50: 17 nM
full-length human RORγt [4]; ** 2 μM compound concentration
  RORγt (FL) Reporter Assay B or C, % inhibition: 108** %

## CC(C)(O)CNC(=O)c1nc(C(=O)N2CCC(F)CC2)c(-c2ccc(C(O)(C(F)(F)F)C(F)(F)F)c(Cl)c2Cl)s1 [Example 2/10, 5-(2,3-Dichloro-4-(1,1,1,3,3,3-hexafluoro-2-hydroxypropan-2-yl)phenyl)-4-(4-fluoropiperidine-1-carbonyl)-N-(2-hydroxy-2-methylpropyl)thiazole-2-carboxamide]
[1]
  Kd: 13 nM
full-length human RORγt [2]; ** 2 μM compound concentration
  RORγt (FL) Reporter Assay A, % inhibition: 105** %
full-length human RORγt [2]
  IC50: 25 nM

## CN(C(=O)c1nc(C(=O)NCC(C)(C)O)sc1-c1ccc(C(O)(C(F)(F)F)C(F)(F)F)c(Cl)c1Cl)C1CCC1 [Example 2/13, N^4—Cyclobutyl-5-(2,3-dichloro-4-(1,1,1,3,3,3-hexafluoro-2-hydroxypropan-2-yl)phenyl)-N^Z-(2-hydroxy-2-methylpropyl)-N^4-methylthiazole-2,4-dicarboxamide]
[1]
  Kd: 0.43 nM
full-length human RORγt [2]; [5]
  RORγt (FL) Reporter Assay A, % inhibition: 103*** %
full-length human RORγt [2]
  IC50: 10 nM

## CCN(C(=O)c1nc(C(=O)NCC(C)(C)O)sc1-c1ccc(C(O)(C(F)(F)F)C(F)(F)F)c(Cl)c1Cl)C1CCC1 [Example 2/15, N^4—Cyclobutyl-5-(2,3-dichloro-4-(1,1,1,3,3,3-hexafluoro-2-hydroxypropan-2-yl)phenyl)-N^4-ethyl-N2-(2-hydroxy-2-methylpropyl)thiazole-2,4-dicarboxamide]
[1]
  Kd: 0.18 nM
full-length human RORγt [2]; [5]
  RORγt (FL) Reporter Assay A, % inhibition: 106*** %
full-length human RORγt [2]
  IC50: 5 nM

## C[C@@H]1CCCN1C(=O)c1nc(C(=O)NCC(C)(C)O)sc1-c1ccc(C(O)(C(F)(F)F)C(F)(F)F)c(Cl)c1Cl [Example 2/16, (R)-5-(2,3-dichloro-4-(1,1,1,3,3,3-hexafluoro-2-hydroxypropan-2-yl)phenyl)-N-(2-hydroxy-2-methylpropyl)-4-(2-methylpyrrolidine-1-carbonyl)thiazole-2-carboxamide]
full-length human RORγt [2]; ** 2 μM compound concentration
  RORγt (FL) Reporter Assay A, % inhibition: 86** %

## CCN(CC)C(=O)c1nc(C(=O)N2C[C@H](O)C[C@H](O)C2)sc1-c1ccc(C(O)(C(F)(F)F)C(F)(F)F)c(Cl)c1Cl [Example 3/4]
[1]
  Kd: 10 nM
full-length human RORγt [2]; ** 2 μM compound concentration
  RORγt (FL) Reporter Assay A, % inhibition: 100** %
full-length human RORγt [2]
  IC50: 14 nM

## O=C(NC1CS(=O)(=O)C1)c1nc(C(=O)N2CCC(F)CC2)c(-c2ccc(C(O)(C(F)(F)F)C(F)(F)F)c(Cl)c2Cl)s1 [Example 6/1, 5-(2,3-Dichloro-4-(1,1,1,3,3,3-hexafluoro-2-hydroxypropan-2-yl)phenyl)-N-(1,1-dioxidothietan-3-yl)-4-(4-fluoropiperidine-1-carbonyl)thiazole-2-carboxamide]
[3]
  IC50: 42 nM

## C[C@H]1CC(F)(F)CN1C(=O)c1nc(C(=O)N2C[C@H](O)C[C@H](O)C2)sc1-c1ccc(C(O)(C(F)(F)F)C(F)(F)F)cc1C(F)(F)F [Example 9/1, ((S)-4,4-Difluoro-2-methylpyrrolidin-1-yl)(2-((3R,5S)-3,5-dihydroxypiperidine-1-carbonyl)-5-(4-(1,1,1,3,3,3-hexafluoro-2-hydroxypropan-2-yl)-2-(trifluoromethyl)phenyl)thiazol-4-yl)methanone]
[3]
  IC50: 13 nM

## C[C@H]1CCCN1C(=O)c1nc(C(=O)NCC(C)(C)O)sc1-c1ccc(C(O)(C(F)(F)F)C(F)(F)F)cc1C(F)F [Example 15, (S)-5-(2-(Difluoromethyl)-4-(1,1,1,3-hexafluoro-2-hydroxypropan-2-yl)phenyl)-N-(2-hydroxy-2-methylpropyl)-4-(2-methylpyrrolidine-1-carbonyl)thiazole-2-carboxamide]
[3]
  IC50: 47 nM

## C[C@H]1CCCN1C(=O)c1nc(C(=O)NCC(C)(C)O)sc1-c1ccc(C(O)(C(F)(F)F)C(F)(F)F)cc1Cl [Example 15/10, (S)-5-(2-Chloro-4-(1,1,1,3,3,3-hexafluoro-2-hydroxypropan-2-yl)phenyl)-N-(2-hydroxy-2-methylpropyl)-4-(2-methylpyrrolidine-1-carbonyl)thiazole-2-carboxamide]
[1]
  Kd: 0.26 nM
full-length human RORγt [4]; * 3 μM compound concentration
  RORγt (FL) Reporter Assay B or C, % inhibition: 97* %
full-length human RORγt [4]
  IC50: 7.9 nM

## Cc1cc(C(O)(C(F)(F)F)C(F)(F)F)ccc1-c1sc(C(=O)NCC(C)(C)O)nc1C(=O)N1CCC[C@@H]1C [Example 19, (S)-5-(4-(1,1,1,3,3,3-Hexafluoro-2-hydroxypropan-2-yl)-2-methylphenyl)-N-(2-hydroxy-2-methylpropyl)-4-(2-methylpyrrolidine-1-carbonyl)thiazole-2-carboxamide]
[3]; IL-17 in supernatant, 3 days culture
  IC50: 55 nM

## Cc1cc(C(O)(C(F)(F)F)C(F)(F)F)ccc1-c1sc(C(=O)NCC(C)(C)O)nc1C(=O)N1CCCC[C@@H]1C [Example 21/2, (S)-5-(4-(1,1,1,3,3,3-Hexafluoro-2-hydroxypropan-2-yl)-2-methylphenyl)-N-(2-hydroxy-2-methylpropyl)-4-(2-methylpiperidine-1-carbonyl)thiazole-2-carboxamide]
[1]
  Kd: 0.21 nM
full-length human RORγt [4]; * 3 μM compound concentration
  RORγt (FL) Reporter Assay B or C, % inhibition: 101* %
full-length human RORγt [4]
  IC50: 3.9 nM

From patent US10150762B2, “Trifluoromethyl alcohols as modulators of RORγt” (Janssen Pharmaceutica NV, priority 2014, dated 2018)
